ChEMBL document CHEMBL1128822, “Synthesis and biological evaluation of 2,3-diarylthiophenes as selective Cox-2 and Cox-1 inhibitors” (Bioorg Med Chem Lett, 1995)

How the values were obtained:
[1] = target: Prostaglandin G/H synthase 1 (Homo sapiens, UniProt P23219); assay: Inhibitory activity against human COX-1 expressed in baculovirus infected Sf9 cells
[2] = target: T1, Prostaglandin G/H synthase 2 (Homo sapiens, UniProt P35354); assay: Inhibitory activity against human COX-2 expressed in baculovirus infected Sf9 cells; format: cell-based
T1 sequence (P35354 whole entry): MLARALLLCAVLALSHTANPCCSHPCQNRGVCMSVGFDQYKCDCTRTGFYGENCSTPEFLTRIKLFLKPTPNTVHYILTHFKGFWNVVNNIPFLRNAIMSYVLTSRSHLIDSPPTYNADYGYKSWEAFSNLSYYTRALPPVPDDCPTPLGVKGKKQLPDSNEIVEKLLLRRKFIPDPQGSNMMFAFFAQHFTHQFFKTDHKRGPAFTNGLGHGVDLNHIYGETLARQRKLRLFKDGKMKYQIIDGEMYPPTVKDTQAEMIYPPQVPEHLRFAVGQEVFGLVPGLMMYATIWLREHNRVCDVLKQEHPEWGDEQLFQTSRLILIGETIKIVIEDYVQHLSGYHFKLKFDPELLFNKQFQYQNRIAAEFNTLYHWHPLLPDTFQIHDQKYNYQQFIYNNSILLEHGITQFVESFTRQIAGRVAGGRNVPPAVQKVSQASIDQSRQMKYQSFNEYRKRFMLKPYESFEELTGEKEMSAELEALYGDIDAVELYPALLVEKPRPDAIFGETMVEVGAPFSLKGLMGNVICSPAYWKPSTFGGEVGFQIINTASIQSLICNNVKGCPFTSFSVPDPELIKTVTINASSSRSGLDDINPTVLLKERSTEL

Chain of Prostaglandin G/H synthase 1 (P23219 whole entry): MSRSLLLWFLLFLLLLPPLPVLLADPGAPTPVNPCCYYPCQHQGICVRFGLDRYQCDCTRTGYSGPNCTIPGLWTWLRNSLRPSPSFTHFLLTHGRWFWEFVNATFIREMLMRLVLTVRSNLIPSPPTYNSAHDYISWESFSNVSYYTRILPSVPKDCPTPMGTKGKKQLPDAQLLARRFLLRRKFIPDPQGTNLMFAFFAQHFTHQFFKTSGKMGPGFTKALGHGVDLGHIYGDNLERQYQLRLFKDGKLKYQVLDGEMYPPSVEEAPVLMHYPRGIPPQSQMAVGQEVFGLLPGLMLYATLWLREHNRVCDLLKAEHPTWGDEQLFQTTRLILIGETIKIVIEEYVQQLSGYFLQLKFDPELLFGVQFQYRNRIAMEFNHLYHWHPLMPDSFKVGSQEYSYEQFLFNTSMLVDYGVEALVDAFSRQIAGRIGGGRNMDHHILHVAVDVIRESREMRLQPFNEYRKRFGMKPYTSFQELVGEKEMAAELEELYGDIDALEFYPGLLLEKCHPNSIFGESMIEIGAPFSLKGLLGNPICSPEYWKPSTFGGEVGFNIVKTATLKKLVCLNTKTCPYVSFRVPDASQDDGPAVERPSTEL

Row | SMILES | IC50 [1] | IC50 [2]
1 | CNS(=O)(=O)c1ccc(-c2ccsc2-c2ccc(F)cc2)cc1 | > 50000 nM | 7200 nM
2 | CC(C)(O)c1cc(-c2ccc(F)cc2)c(-c2ccc(S(N)(=O)=O)cc2)s1 | > 50000 nM | 1600 nM
3 | NS(=O)(=O)c1ccc(-c2ccsc2-c2ccc(F)cc2)cc1 | 1300 nM | 30 nM
4 | COC(=O)c1cc(-c2ccc(S(N)(=O)=O)cc2)c(-c2ccc(F)cc2)s1 | 1000 nM | 70 nM
5 | CS(=O)(=O)c1ccc(-c2ccsc2-c2ccc(F)cc2)cc1 | > 100000 nM | 250 nM
6 | COC(=O)c1cc(-c2ccc(F)cc2)c(-c2ccc(S(N)(=O)=O)cc2)s1 | > 50000 nM | > 30000 nM
7 | CC(C)(O)c1cc(-c2ccc(S(N)(=O)=O)cc2)c(-c2ccc(F)cc2)s1 | 5400 nM | 410 nM
8 | CCS(=O)(=O)c1ccc(-c2ccsc2-c2ccc(F)cc2)cc1 | > 50000 nM | > 30000 nM
9 | CC(C)c1cc(-c2ccc(S(N)(=O)=O)cc2)c(-c2ccc(F)cc2)s1 | 230 nM | 10 nM
10 | CC(=O)NS(=O)(=O)c1ccc(-c2ccsc2-c2ccc(F)cc2)cc1 | > 50000 nM | 5400 nM
11 | CS(=O)(=O)c1ccc(-c2sc(Br)cc2-c2ccc(F)cc2)cc1 | 1100 nM | 20 nM
12 | CS(=O)(=O)c1ccc(-c2sccc2-c2ccc(F)cc2)cc1 | > 50000 nM | 4300 nM
13 | C[Se](=O)(=O)c1ccc(-c2ccsc2-c2ccc(F)cc2)cc1 | 32000 nM | 550 nM

Continued, values first:

Row | IC50 [1] | IC50 [2] | SMILES
14 | 350 nM | > 30000 nM | OCc1ccc(-c2ccsc2-c2ccc(F)cc2)cc1
15 | 210 nM | > 30000 nM | N#Cc1ccc(-c2ccsc2-c2ccc(F)cc2)cc1
16 |  | > 30000 nM | O=C(O)Cc1ccc(-c2ccsc2-c2ccc(F)cc2)cc1
17 | > 50000 nM | > 30000 nM | O=C(O)c1ccc(-c2ccsc2-c2ccc(F)cc2)cc1
18 | 980 nM | > 30000 nM | O=Cc1ccc(-c2ccsc2-c2ccc(F)cc2)cc1
19 | 17000 nM | > 30000 nM | COC(=O)c1ccc(-c2ccsc2-c2ccc(F)cc2)cc1
20 | 15000 nM | > 30000 nM | C[S+]([O-])c1ccc(-c2ccsc2-c2ccc(F)cc2)cc1 (configuration not stated)
21 | 340 nM | > 30000 nM | CSc1ccc(-c2ccsc2-c2ccc(F)cc2)cc1
22 | 3200 nM | > 30000 nM | NC(=O)c1ccc(-c2ccsc2-c2ccc(F)cc2)cc1
23 | 750 nM | > 30000 nM | CC(=O)c1ccc(-c2ccsc2-c2ccc(F)cc2)cc1
24 | 2700 nM | 670 nM | NS(=O)(=O)c1ccc(-c2sccc2-c2ccc(F)cc2)cc1
